Results on one substance are retold here after patent US20100234381A1, “BIOMARKERS AND METHODS FOR DETERMINING SENSITIVITY TO VASCULAR ENDOTHELIAL GROWTH FACTOR RECEPTOR-2 MODULATORS” (Bristol-Myers Squibb Company, priority 2007, published 2010).

One assay has as its system pERK and pAKT. Briefly: Western blot of downstream pERK and pAKT after FGF2 stimulation. Type of assay: cell-based. The note with it: 2 μm brivanib, 40 ng/ml FGF2, HCC cell line. In general terms: A western blot detects proteins with antibodies after separation by electrophoresis.
The next assay deals with collagen IV (CIV). Kind of assay: Plasma collagen IV (CIV) ELISA in patients. Type of assay: in vivo, human. The note with it: for reduction in median CIV levels: regardless of FGF-2 status. The method, then: Plasma collagen IV (CIV) was measured using an enzyme-linked immunosorbent assay (ELISA) kit obtained from Biotrin International, Ltd. (Dublin, Ireland). […] Per the manufacturer's kit insert and instructions, the kit standards, QCs and EDTA plasma patient samples were diluted with conjugate (anti-collagen IV mouse Fab′ conjugated to horseradish peroxidase, containing 30 mg/l Proclin 300 as a preservative). Diluted samples were incubated for 30 minutes in wells coated with a second anti-collagen IV antibody, and then washed 3 times with kit wash buffer (phosphate buffer with Tween 20 and proclin 300 as a preservative. Ready to use TMB substrate was added and incubated for 30 minutes. The reaction was stopped by the addition of 1M H2SO4. The absorbance at 450 nm using 630 nm as a reference was measured using a SPECTRAMAX® plate reader (Molecular Devices, Sunnyvale, Calif.). Softmax Pro 4.8 software was used to generate a 4-parameter logistic (4-PL) curve fit using the CIV kit standards.
Background: An ELISA detects its analyte on a solid surface through an enzyme-linked reagent.

For a further assay, the system named is GEO colon cancer cells. Kind of assay: FGF2-induced proliferation of GEO colon cancer cells (modified MTS assay). Type of assay: cell-based. The method, then:
Cell Culture-GEO colon cancer cell line was routinely maintained in RPMI 1640 (Cellgro, Virginia) with 1% fetal bovine serum (Cellgro, Virginia) at 37° C. in 5% carbon dioxide/95% air in the presence of 100 units/ml penicillin, 100 μg/ml streptomycin (Cellgro, Virginia). Cell proliferation was determined by a modified MTS assay with […] 96® Aqueous One Solution Reagent (Promega, Madison, Wis.). […] After 180 minutes incubation, the optical densities (OD) of these samples were directly measured using SPECTRAMAX® plus (Molecular Device, California) and reference wavelength of 490 nm. […] Cell proliferation was determined by a modified MTS assay with […] […] After 180 minutes incubation, the optical densities (OD) of these samples were directly measured using SPECTRAMAX® plus (Molecular Device, California) and reference wavelength of 490 nm. […] […]
On the technique in general: Formazan colour is commonly taken as a measure of viable cells.

Assay [1] deals with MIAPAC-2 pancreatic cancer cells. Kind of assay: FGF2-induced proliferation of MIAPAC-2 pancreatic cancer cells (modified MTS assay). Type of assay: cell-based. The method, then: Cell proliferation was determined by a modified MTS assay with […] 96® Aqueous One Solution Reagent (Promega, Madison, Wis.). A2780 ovarian cancer cells, MIAPAC-2 pancreatic cancer cells, or GEO colon cancer cells were seeded on 96-well flat-bottomed tissue culture plates (Becton Dickinson, San Jose, Calif.) at a concentration of 3×10^3 cells/well in RPMI 1640 with 1% fetal bovine serum at 37° C. in 5% carbon dioxide/95% air in the presence of 100 units/ml penicillin, 100 μg/ml streptomycin and allowed to adhere to the plate overnight. Then the cells were incubated in the presence of each concentration of 0 (control), 0.3, 0.6, 1.25, 2.5, 5, 10 ng/ml of FGF2 or VEGF for another 72 hours at 37° C. in a humidified atmosphere of 5% CO2 in air. After treatment, 20 μl of […] 96® Aqueous One Solution Reagent was dropped into each well of plates. After 180 minutes incubation, the optical densities (OD) of these samples were directly measured using SPECTRAMAX® plus (Molecular Device, California) and reference wavelength of 490 nm. The OD of control samples was regarded as 100. Each condition was performed with 4 wells and experiment was repeated twice.

In the next assay the test system is VEGF gene expression. Briefly: VEGF gene expression, AFFYMETRIX human arrays.
The test system of the next assay is FGF pathway. Kind of assay: Gene set enrichment analysis of FGF pathway expression after FGF2 stimulation. Type of assay: cell-based. The note with it: 1 μm drug after FGF2 stimulation. The procedure:
The expression profiles of individual genes within each pathway were analyzed, and the log of the change in expression profile for each condition was measured. Overall, 67 pathways were analyzed. Each gene analyzed for each pathway have not been provided. But, 46 genes from the FGF pathway, 62 genes from the VEGF pathway were analyzed, and a larger generic number of genes consisting of 92 genes for the FGF pathway were analyzed using the AMBION® gene set.

Entries after “also recorded” stand apart in the source; their conditions may differ.

Experimental for pERK and pAKT: Anti-FGFR1, Anti-VEGFR2, Anti-ERK, Anti-AKT, and Anti-alpha tubulin antibodies were also utilized. Blots were incubated with indicated primary antibodies and 1:7500 horseradish peroxidase-conjugated secondary antibodies. All primary antibodies were used at a final concentration of 1 μg/ml. The blots were then visualized with a chemiluminescent detection system.

A word on the IC50: it is the concentration that gives 50% inhibition. For the substance “[(1R),2S]-2-Aminopropionic acid 2-[4-(4-fluoro-2-methyl-1H-indol-5-yloxy)-5-methylpyrrolo[2,1-f][1,2,4]triazin-6-yloxy]-1-methylethyl ester [brivanib]”, the “downstream pathway pERK and pAKT” value in the assay with pERK and pAKT was “affecting downstream pathway genes such as pERK and pAKT”. Also, the “reduction in median CIV levels” value in the assay on collagen IV (CIV) (320 mg, after 8 days) is given as 2.6%; in the assay on collagen IV (CIV) (320 mg, after 26 days) it was 2.3%; in the assay on collagen IV (CIV) (800 mg, after 8 days), 24%; in the assay on collagen IV (CIV) (800 mg, after 26 days) it was 31%. Moreover, the “COL IV change from baseline (%) (Day 26) (n = 42)” value is on record as −30% in the assay on collagen IV (CIV) (FGF2+ patients (n = 24)) and −16% in the assay with collagen IV (CIV) (FGF2− patients (n = 19)). The “median decrease of CIV levels from baseline” value is 4.9% in the assay with collagen IV (CIV) (patients with FGF2(−) tumors, after 8 days) and 16.1% with collagen IV (CIV) (patients with FGF-2(+) tumors, after 8 days). Moreover, the “median reduction from baseline in CIV levels” value in the assay with collagen IV (CIV) (patients with FGF-2(+) tumors, after 26 days) was 30.7%; in the assay with collagen IV (CIV) (patients with FGF-2(−) tumors, after 26 days), 4.3%. Also, the “GEO tumor cell growth over time, stimulated with FGF2” value in the assay with GEO colon cancer cells (2.5 μM brivanib, day 1 to 8 compared to day 0 control) was “inhibited GEO tumor cell growth stimulated with FGF2”. In addition, the “inhibition of FGF2-induced cellular proliferation in GEO cells” value in the assay on GEO colon cancer cells (FGF2 2.5 ng/ml, 72 hours) is recorded as “potently inhibited; also recorded: inhibited cancer cell growth directly; also recorded: inhibits colon cancer cell growth directly”. In assay [1] (MIAPAC-2 pancreatic cancer cells), the “effect on FGF2-induced cellular proliferation” value is “potently inhibited; also recorded: inhibits ovarian cancer and pancreatic cancer cell line growth directly”. In assay [1] (pancreatic cancer cell line MIAPAC-2), the “inhibition of FGF2-induced cell growth” value is on record as over 50%. The IC50 in assay [1] (pancreatic cancer cell line MIAPAC-2, read-out: IC50, FGF2-induced cell growth) was under 500 nM. Also, in the assay with VEGF gene expression, the “modulation of VEGF gene expression levels” value was “modulated VEGF gene expression levels”. Moreover, the “FGF2-induced FGF pathway up-regulation (expression)” value with FGF pathway is on record as “inhibited only by brivanib; also recorded: abrograted only in the presence of only brivanib”.
